{
  "source": "ChEMBL document CHEMBL1125556",
  "about": "“Fluoroquinolones: relationships between structural variations, mammalian cell cytotoxicity, and antimicrobial activity” (J Med Chem, 1992)",
  "key": {"V79": {"system": "V79", "assay": "Mammalian cell cytotoxicity test in chinese hamster V79 cells (clonogenic cytotoxicity)", "type": "functional, cell-based"}, "[1]": {"assay": "Antibacterial activity against five Gram-negative bacteria", "type": "functional"}, "[2]": {"settings": "Cricetulus griseus, V79, read-out: IC50"}},
  "data": [
    {"smiles": "NC1CCN(c2nc3c(cc2F)c(=O)c(C(=O)O)cn3-c2ccc(F)cc2F)C1", "note": "(stereo not given) [TOSUFLOXACIN]", "values": [
      {"measurement": "IC50", "setting": "V79; [2]", "result": 128, "unit": "µg/mL"},
      {"measurement": "MIC", "setting": "[1]; read-out: MIC", "result": 0.09, "unit": "µg/mL"}
    ]},
    {"smiles": "CCNCC1CCN(c2c(F)cc3c(=O)c(C(=O)O)cn(CCO)c3c2F)C1", "note": "(stereo not given)", "values": [
      {"measurement": "IC50", "setting": "V79; [2]", "result": "> 500", "unit": "µg/mL"},
      {"measurement": "MIC", "setting": "[1]; read-out: MIC", "result": 50, "unit": "µg/mL"}
    ]},
    {"smiles": "NC1CCN(c2c(F)c(F)c3c(=O)c(C(=O)O)cn(C4CC4)c3c2C(F)(F)F)C1", "note": "(stereo not given)", "values": [
      {"measurement": "IC50", "setting": "V79; [2]", "result": 190, "unit": "µg/mL"},
      {"measurement": "MIC", "setting": "[1]; read-out: MIC", "result": 25, "unit": "µg/mL"}
    ]},
    {"smiles": "CCNCC1CCN(c2c(F)cc3c(=O)c(C(=O)O)cn(-c4ccc(F)cc4F)c3c2Cl)C1", "note": "(stereo not given)", "values": [
      {"measurement": "IC50", "setting": "V79; [2]", "result": 130, "unit": "µg/mL"},
      {"measurement": "MIC", "setting": "[1]; read-out: MIC", "result": 1.05, "unit": "µg/mL"}
    ]},
    {"smiles": "NC1CCN(c2c(F)cc3c(=O)c(C(=O)O)cn(C4CC4)c3c2Cl)C1", "note": "(stereo in doubt; 24c) [CLINAFLOXACIN]", "values": [
      {"measurement": "IC50", "setting": "V79; [2]", "result": 26, "unit": "µg/mL"},
      {"measurement": "MIC", "setting": "[1]; read-out: MIC", "result": 0.03, "unit": "µg/mL"}
    ]},
    {"smiles": "Nc1c(N2CCC(N)C2)c(F)cc2c(=O)c(C(=O)O)cn(C3CC3)c12", "note": "(stereo not given)", "values": [
      {"measurement": "IC50", "setting": "V79; [2]", "result": 260, "unit": "µg/mL"},
      {"measurement": "MIC", "setting": "[1]; read-out: MIC", "result": 0.53, "unit": "µg/mL"}
    ]},
    {"smiles": "COc1c(N2CCC(N)C2)c(F)cc2c(=O)c(C(=O)O)cn(C3CC3)c12", "note": "(stereo in doubt; 24d)", "values": [
      {"measurement": "IC50", "setting": "V79; v79", "result": 45, "unit": "µg/mL"},
      {"measurement": "MIC", "setting": "[1]; read-out: MIC", "result": 0.07, "unit": "µg/mL"}
    ]},
    {"smiles": "NCC1CCN(c2nc3c(cc2F)c(=O)c(C(=O)O)cn3C2CC2)C1", "note": "(stereo not given)", "values": [
      {"measurement": "IC50", "setting": "V79; [2]", "result": 51, "unit": "µg/mL"},
      {"measurement": "MIC", "setting": "[1]; read-out: MIC", "result": 0.14, "unit": "µg/mL"}
    ]},
    {"smiles": "CC1(CN)CCN(c2c(F)cc3c(=O)c(C(=O)O)cn(C4CC4)c3c2F)C1", "note": "(stereo not given)", "values": [
      {"measurement": "IC50", "setting": "V79; [2]", "result": 8, "unit": "µg/mL"},
      {"measurement": "MIC", "setting": "[1]; read-out: MIC", "result": 0.13, "unit": "µg/mL"}
    ]},
    {"smiles": "O=C(O)c1cn(C2CC2)c2c(Cl)c(N3CCCC3)c(F)cc2c1=O", "values": [
      {"measurement": "IC50", "setting": "V79; [2]", "result": 150, "unit": "µg/mL"},
      {"measurement": "MIC", "setting": "[1]; read-out: MIC", "result": 0.1, "unit": "µg/mL"}
    ]},
    {"smiles": "CC1(N)CCN(c2c(F)cc3c(=O)c(C(=O)O)cn(C4CC4)c3c2C(F)(F)F)C1", "note": "(stereo not given)", "values": [
      {"measurement": "IC50", "setting": "V79; [2]", "result": 110, "unit": "µg/mL"},
      {"measurement": "MIC", "setting": "[1]; read-out: MIC", "result": 1, "unit": "µg/mL"}
    ]},
    {"smiles": "CC1COc2c(N3CCN(C)CC3)c(F)cc3c(=O)c(C(=O)O)cn1c23", "note": "(stereo not given) [OFLOXACIN]", "values": [
      {"measurement": "IC50", "setting": "V79; [2]", "result": "> 500", "unit": "µg/mL"},
      {"measurement": "MIC", "setting": "[1]; read-out: MIC", "result": 0.2, "unit": "µg/mL"}
    ]},
    {"smiles": "NC1CCN(c2c(F)cc3c(=O)c(C(=O)O)cn(C4CC4)c3c2C(F)(F)F)C1", "note": "(stereo in doubt; 24e)", "values": [
      {"measurement": "IC50", "setting": "V79; v79", "result": 300, "unit": "µg/mL"},
      {"measurement": "MIC", "setting": "[1]", "result": 0.2, "unit": "µg/mL"}
    ]},
    {"smiles": "CNCC1(C)CCN(c2cc3c(cc2F)c(=O)c(C(=O)O)cn3C2CC2)C1", "note": "(stereo not given)", "values": [
      {"measurement": "IC50", "setting": "V79; [2]", "result": 205, "unit": "µg/mL"},
      {"measurement": "MIC", "setting": "[1]; read-out: MIC", "result": 0.4, "unit": "µg/mL"}
    ]},
    {"smiles": "CNCC1(C)CCN(c2c(F)cc3c(=O)c(C(=O)O)cn(C4CC4)c3c2OC)C1", "note": "(stereo not given)", "values": [
      {"measurement": "IC50", "setting": "V79; [2]", "result": 120, "unit": "µg/mL"},
      {"measurement": "MIC", "setting": "[1]; read-out: MIC", "result": 0.52, "unit": "µg/mL"}
    ]},
    {"smiles": "NC1CCN(c2cc3c(cc2F)c(=O)c(C(=O)O)cn3C2CC2)C1", "note": "(stereo in doubt; 44)", "values": [
      {"measurement": "IC50", "setting": "V79; v79", "result": 72, "unit": "µg/mL"},
      {"measurement": "MIC", "setting": "[1]", "result": 0.09, "unit": "µg/mL"}
    ]},
    {"smiles": "Nc1c(F)c(N2CCC(N)C2)c(Cl)c2c1c(=O)c(C(=O)O)cn2C1CC1", "note": "(stereo not given)", "values": [
      {"measurement": "IC50", "setting": "V79; [2]", "result": 59, "unit": "µg/mL"},
      {"measurement": "MIC", "setting": "[1]; read-out: MIC", "result": 0.08, "unit": "µg/mL"}
    ]},
    {"smiles": "O=C(O)c1cn(C2CC2)c2c(Cl)c(N3CCNCC3)c(F)cc2c1=O", "values": [
      {"measurement": "IC50", "setting": "V79; [2]", "result": 43, "unit": "µg/mL"},
      {"measurement": "MIC", "setting": "[1]; read-out: MIC", "result": 0.07, "unit": "µg/mL"}
    ]},
    {"smiles": "NC1CCCN(c2c(F)cc3c(=O)c(C(=O)O)cn(C4CC4)c3c2F)C1", "note": "(stereo not given)", "values": [
      {"measurement": "IC50", "setting": "V79; [2]", "result": 53, "unit": "µg/mL"},
      {"measurement": "MIC", "setting": "[1]; read-out: MIC", "result": 0.13, "unit": "µg/mL"}
    ]},
    {"smiles": "NC1CCCN(c2c(F)cc3c(=O)c(C(=O)O)cn(C4CC4)c3c2Cl)C1", "note": "(stereo not given)", "values": [
      {"measurement": "IC50", "setting": "V79; [2]", "result": 24, "unit": "µg/mL"},
      {"measurement": "MIC", "setting": "[1]; read-out: MIC", "result": 0.07, "unit": "µg/mL"}
    ]},
    {"smiles": "CN1CCN(c2c(F)cc3c(=O)c(C(=O)O)cn(CCF)c3c2F)CC1", "note": "[FLEROXACIN]", "values": [
      {"measurement": "IC50", "setting": "V79; [2]", "result": "> 500", "unit": "µg/mL"},
      {"measurement": "MIC", "setting": "[1]; read-out: MIC", "result": 0.35, "unit": "µg/mL"}
    ]},
    {"smiles": "NC1CCCN(c2c(F)cc3c(=O)c(C(=O)O)cn(C4CC4)c3c2C(F)(F)F)C1", "note": "(stereo not given)", "values": [
      {"measurement": "IC50", "setting": "V79; [2]", "result": "> 500", "unit": "µg/mL"},
      {"measurement": "MIC", "setting": "[1]; read-out: MIC", "result": 0.52, "unit": "µg/mL"}
    ]},
    {"smiles": "COc1c(N2CCCC(N)C2)c(F)cc2c(=O)c(C(=O)O)cn(C3CC3)c12", "note": "(stereo not given)", "values": [
      {"measurement": "IC50", "setting": "V79; [2]", "result": 69, "unit": "µg/mL"},
      {"measurement": "MIC", "setting": "[1]; read-out: MIC", "result": 0.23, "unit": "µg/mL"}
    ]},
    {"smiles": "CCNCC1CCN(c2c(F)cc3c(=O)c(C(=O)O)cn(CC4CC4)c3c2F)C1", "note": "(stereo not given)", "values": [
      {"measurement": "IC50", "setting": "V79; [2]", "result": 240, "unit": "µg/mL"},
      {"measurement": "MIC", "setting": "[1]; read-out: MIC", "result": 4.17, "unit": "µg/mL"}
    ]},
    {"smiles": "COc1c(F)c(N2CCC(N)C2)c(Cl)c2c1c(=O)c(C(=O)O)cn2C1CC1", "note": "(stereo not given)", "values": [
      {"measurement": "IC50", "setting": "V79; [2]", "result": "> 500", "unit": "µg/mL"},
      {"measurement": "MIC", "setting": "[1]; read-out: MIC", "result": 2.08, "unit": "µg/mL"}
    ]},
    {"smiles": "CCNCC1CCN(c2c(F)cc3c(=O)c(C(=O)O)cn(CC)c3c2F)C1", "note": "(stereo not given) [MERAFLOXACIN]", "values": [
      {"measurement": "IC50", "setting": "V79; [2]", "result": 160, "unit": "µg/mL"},
      {"measurement": "MIC", "setting": "[1]; read-out: MIC", "result": 0.2, "unit": "µg/mL"}
    ]},
    {"smiles": "CCNCC1CCN(c2cc3c(cc2F)c(=O)c(C(=O)O)cn3-c2ccc(F)cc2F)C1", "note": "(stereo in doubt; 36b)", "values": [
      {"measurement": "IC50", "setting": "V79; [2]", "result": 190, "unit": "µg/mL"},
      {"measurement": "MIC", "setting": "[1]; read-out: MIC", "result": 0.8, "unit": "µg/mL"}
    ]},
    {"smiles": "O=C(O)c1cn(C2CC2)c2nc(N3CCCC3)c(F)cc2c1=O", "values": [
      {"measurement": "IC50", "setting": "V79; [2]", "result": 58, "unit": "µg/mL"},
      {"measurement": "MIC", "setting": "[1]; read-out: MIC", "result": 0.26, "unit": "µg/mL"}
    ]},
    {"smiles": "COc1c(N2CCC(C)(N)C2)c(F)cc2c(=O)c(C(=O)O)cn(C3CC3)c12", "note": "(stereo not given)", "values": [
      {"measurement": "IC50", "setting": "V79; [2]", "result": 38, "unit": "µg/mL"},
      {"measurement": "MIC", "setting": "[1]; read-out: MIC", "result": 0.26, "unit": "µg/mL"}
    ]},
    {"smiles": "CC1CN(c2nc3c(cc2F)c(=O)c(C(=O)O)cn3C2CC2)CC(C)N1", "note": "(stereo not given)", "values": [
      {"measurement": "IC50", "setting": "V79; [2]", "result": 250, "unit": "µg/mL"},
      {"measurement": "MIC", "setting": "[1]; read-out: MIC", "result": 0.17, "unit": "µg/mL"}
    ]}
  ]
}
